Laboratory results as given in patent US7476764B2, “Phenylcarboxyamides as beta-secretase inhibitors” (Bristol-Myers Squibb Company, priority 2005, dated 2009).
Counter-ions that a name gives are not always drawn.

biological target: T1, BACE1 enzyme (Homo sapiens, UniProt P56817); assay: Radioligand displacement assay with a radiolabeled BACE inhibitor on HEK293-9B.A1 cell homogenate; type: binding; settings: not given
T1 construct: The HEK293-9B.A1 cell line, which overexpresses the BACE1 enzyme, was derived from HEK293 cells; endogenous in cells; washed 48,000 x g pellet of the cell homogenate
T1 sequence (P56817 46-501): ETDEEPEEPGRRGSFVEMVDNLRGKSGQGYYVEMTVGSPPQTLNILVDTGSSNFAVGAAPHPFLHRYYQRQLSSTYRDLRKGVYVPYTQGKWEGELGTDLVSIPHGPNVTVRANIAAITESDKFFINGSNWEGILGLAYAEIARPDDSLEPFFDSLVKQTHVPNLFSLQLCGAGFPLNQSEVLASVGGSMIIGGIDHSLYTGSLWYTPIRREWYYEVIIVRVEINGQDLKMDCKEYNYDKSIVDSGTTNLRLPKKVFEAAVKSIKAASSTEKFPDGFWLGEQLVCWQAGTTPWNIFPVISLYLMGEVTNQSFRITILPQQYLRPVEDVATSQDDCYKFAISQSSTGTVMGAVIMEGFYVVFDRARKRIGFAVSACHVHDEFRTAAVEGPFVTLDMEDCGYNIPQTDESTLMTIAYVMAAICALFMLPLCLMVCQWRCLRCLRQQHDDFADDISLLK
Protocol: Radioligand displacement assays with a radiolabeled BACE inhibitor (WO 2004 013098, compound 3, where the methoxy group is substituted for C(^3H)3) were carried out using standard methods (Keen, M. (1999) in Receptor Binding Techniques (Walker, J. M. ed) p. 106 Humana Press, Totowa, N.J.). The HEK293-9B.A1 cell line, which overexpresses the BACE1 enzyme, was derived from HEK293 cells (Simmons, N. L. (1990) A cultured human renal epitheloid cell line responsive to vasoactive intestinal peptide. Exp. Physiol. 75:309-19.) by RAGE™ (Harrington, J. J. et al. (2001) Creation of genome-wide protein expression libraries using random activation of gene expression. Nat. Biotechnol. 19:440-5; U.S. Pat. Nos. 6,410,266 and 6,361,972). T225 flask cultures of HEK293-9B.A1 were grown to 80% confluency in DMEM supplemented with 2 mM L-glutamine, 10 μg/ml penicillin, 10 μg/ml streptomycin, 3 μg/ml puromycin, 100 nM methotrexate, and 10% fetal bovine serum (Invitrogen, Carlsbad, Calif.), harvested, and resuspended at 2×10^8 cells per 10 ml of lysis buffer consisting of 50 mM HEPES pH 7.0 containing a protease inhibitor cocktail of AEBSF 104 μM, aprotinin 80 nM, leupeptin 2 μM, bestatin 4 μM, pepstatin A 1.5 μM, and E-64 1.4 μM (0.1% of protease inhibitor cocktail P8340, Sigma-Aldrich, St. Louis, Mo.) at 4° C. The resuspended cells were homogenized using a Polytron (Brinkman, Westbury, N.Y.) at setting 6 for 10 sec., then centrifuged at 48,000×g for 10 min. The resulting pellet was washed by repeating the resuspension, homogenization and centrifugation steps. The final pellet was resuspended in buffer at 4° C. to yield a total protein concentration of 5 mg/ml, then aliquots were frozen in liquid nitrogen for further storage at −70° C. Immediately before carrying out a binding assay, an aliquot of cell homogenate was thawed and diluted to a concentration of 100 μg/ml in assay buffer consisting of 50 mM HEPES pH 5.0 and 0.1% CHAPSO. Assays were initiated in polypropylene 96-well plates (Costar, Cambridge, Mass.) by the addition of 200 μl of cell homogenate to 50 μl of assay buffer containing 1 nM radioligand (WO 2004 013098, compound 3, where the methoxy group is substituted for C(^3H)3: 80 Ci/mMol) and various concentrations of unlabelled compounds, and incubated for 1.5 hr. at 25° C. Separation of bound from free radioligand was by filtration on GFF glass fiber filters (Innotech Biosystems International, Lansing, Mich.) using an Innotech cell harvester.

| Structure (SMILES) | IC50 [nM] |
| --- | --- |
| COc1cccc(CNC[C@@H](O)[C@H](Cc2cc(F)cc(F)c2)NC(=O)c2cc(C(=O)N[C@H](C)c3ccccc3)cc(C(C)O)c2)c1 (stereo partly drawn) [Example 45, N^1-((2S,3R)-4-(3-methoxybenzylamino)-1-(3,5-difluorophenyl)-3-hydroxybutan-2-yl)-5-(1-hydroxyethyl)-N^3-((R)-1-phenylethyl)isophthalamide TFA salt] | < 100 |
| C=CCO/N=C(/C)c1cc(C(=O)N[C@@H](Cc2cc(F)cc(F)c2)[C@H](O)CNCc2cccc(OC)c2)cc(C(=O)N[C@H](C)c2ccccc2)c1 [Example 46, N^1-((2S,3R)-4-(3-methoxybenzylamino)-1-(3,5-difluorophenyl)-3-hydroxybutan-2-yl)-5-((Z)-1-(allyloxyimino)ethyl)-N^3-((R)-1-phenylethyl)isophthalamide TFA salt] | < 100 |

same assay, conditions: displacement of 1 nM tritiated radioligand, HEK293-9B.A1 homogenate, pH 5.0, 1.5 hr at 25° C.; read-out: Activity Rating (activity based on IC50 values)

| Structure (SMILES) | IC50 [nM] |
| --- | --- |
| COc1cccc(CNC[C@@H](O)[C@H](Cc2cc(F)cc(F)c2)NC(=O)c2cc(C(C)=O)cc(N3CCCCS3(=O)=O)c2)c1 [Example 22, N-[(1S,2R)-1-(3,5-difluoro-benzyl)-2-hydroxy-3-(3-methoxy-benzylamino)-propyl]-3-(1,1-dioxo-1λ^6-[1,2]thiazinan-2-yl)-5-acetyl-benzamide TFA salt] | < 100 |
| COc1cccc(CNC[C@@H](O)[C@H](Cc2cc(F)cc(F)c2)NC(=O)c2cc(/C(C)=N/OCc3ccccc3)cc(S(C)(=O)=O)c2)c1 [Example 18, N-((2S,3R)-4-(3-methoxybenzylamino)-1-(3,5-difluorophenyl)-3-hydroxybutan-2-yl)-3-((E)-1-(benzyloxyimino)ethyl)-5-(methylsulfonyl)benzamide TFA salt] | 100 to 1000 |
| C=CCO/N=C(\C)c1cc(C(=O)N[C@@H](Cc2cc(F)cc(F)c2)[C@H](O)CNCc2cccc(OC)c2)cc(N(c2ccccc2)S(C)(=O)=O)c1 [Example 42, N-((2S,3R)-4-(3-methoxybenzylamino)-1-(3,5-difluorophenyl)-3-hydroxybutan-2-yl)-3-((E)-1-(allyloxyimino)ethyl)-5-(N-phenylmethan-10-ylsulfonamido)benzamide] | < 100 |
| CCCN(CCC)C(=O)c1cc(C(=O)N[C@@H](Cc2cc(F)cc(F)c2)[C@H](O)CNCc2cccc(OC)c2)cc(C(C)O)c1 (stereo partly drawn) [Example 2, N^1-((2S,3R)-4-(3-methoxybenzylamino)-1-(3,5-difluorophenyl)-3-hydroxybutan-2-yl)-5-(1-hydroxyethyl)-N^3,N^3-dipropylisophthalamide TFA salt] | < 100 |
| COc1cccc(CNC[C@@H](O)[C@H](Cc2cc(F)cc(F)c2)NC(=O)c2cc(/C(C)=N/O)cc(N(c3ccccc3)S(C)(=O)=O)c2)c1 [Example 37, N-((2S,3R)-4-(3-methoxybenzylamino)-1-(3,5-difluorophenyl)-3-hydroxybutan-2-yl)-3-((E)-1-(hydroxyimino)ethyl)-5-(N-phenylmethan-10-ylsulfonamido)benzamide] | < 100 |
| CCCN(CCC)C(=O)c1cc(C(=O)N[C@@H](Cc2cc(F)cc(F)c2)[C@H](O)CNCc2cccc(OC)c2)cc(/C(C)=N/OCc2ccccc2)c1 [Example 4, N^1-((2S,3R)-4-(3-methoxybenzylamino)-1-(3,5-difluorophenyl)-3-hydroxybutan-2-yl)-5-((E)-1-(benzyloxyimino)ethyl)-N^3,N^3-dipropylisophthalamide TFA salt] | < 100 |
| CCCN(C)C(=O)c1cc(C(=O)N[C@@H](Cc2cc(F)cc(F)c2)[C@H](O)CNCc2cccc(OC)c2)cc(/C(C)=N/OC)c1 [Example 10, N^1-((2S,3R)-4-(3-methoxybenzylamino)-1-(3,5-difluorophenyl)-3-hydroxybutan-2-yl)-5-((E)-1-(methoxyimino)ethyl)-N^3-methyl-N^3-propylisophthalamide hydrochloride] | < 100 |
| CCCN(C)C(=O)c1cc(C(=O)N[C@@H](Cc2cc(F)cc(F)c2)[C@H](O)CNCc2cccc(OC)c2)cc(/C(C)=N/O)c1 [Example 9, N^1-((2S,3R)-4-(3-methoxybenzylamino)-1-(3,5-difluorophenyl)-3-hydroxybutan-2-yl)-5-((E)-1-(hydroxyimino)ethyl)-N^3-methyl-N^3-propylisophthalamide hydrochloride] | < 100 |
| COc1cccc(CNC[C@@H](O)[C@H](Cc2cc(F)cc(F)c2)NC(=O)c2cc(C(C)=O)cc(N(c3ccccc3)S(C)(=O)=O)c2)c1 [Example 36, N-((2S,3R)-4-(3-methoxybenzylamino)-1-(3,5-difluorophenyl)-3-hydroxybutan-2-yl)-3-acetyl-5-(N-phenylmethan-10-ylsulfonamido)benzamide TFA salt] | < 100 |
| CO/N=C(/C)c1cc(C(=O)NC(C)c2ccc(F)cc2)cc(C(=O)N[C@@H](Cc2cc(F)cc(F)c2)[C@H](O)CNCc2cccc(OC)c2)c1 (stereo partly drawn) [Example 50, N^1-((2S,3R)-4-(3-methoxybenzylamino)-1-(3,5-difluorophenyl)-3-hydroxybutan-2-yl)-N^3-(1-(4-fluorophenyl)ethyl)-5-((Z)-1-(methoxyimino)ethyl)isophthalamide TFA salt] | < 100 |
| COc1cccc(CNC[C@@H](O)[C@H](Cc2cc(F)cc(F)c2)NC(=O)c2cc(C(C)=O)cc(C(=O)NC(C)c3ccc(F)cc3)c2)c1 (stereo partly drawn) [Example 47, N^1-((2S,3R)-4-(3-methoxybenzylamino)-1-(3,5-difluorophenyl)-3-hydroxybutan-2-yl)-5-acetyl-N^3-(1-(4-fluorophenyl)ethyl)isophthalamide TFA salt] | < 100 |
| C=CCO/N=C(\C)c1cc(C(=O)N[C@@H](Cc2cc(F)cc(F)c2)[C@H](O)CNCc2cccc(OC)c2)cc(S(C)(=O)=O)c1 [Example 21, N-((2S,3R)-4-(3-methoxybenzylamino)-1-(3,5-difluorophenyl)-3-hydroxybutan-2-yl)-3-((E)-1-(allyloxyimino)ethyl)-5-(methylsulfonyl)benzamide TFA salt] | 100 to 1000 |
| COc1cccc(CNC[C@@H](O)[C@H](Cc2cc(F)cc(F)c2)NC(=O)c2cc(C(C)=O)cc(S(C)(=O)=O)c2)c1 [Example 16, N^1-((2S,3R)-4-(3-methoxybenzylamino)-1-(3,5-difluorophenyl)-3-hydroxybutan-2-yl)-3-acetyl-5-(methylsulfonyl)benzamide TFA salt] | 100 to 1000 |
| CCCO/N=C(\C)c1cc(C(=O)N[C@@H](Cc2cc(F)cc(F)c2)[C@H](O)CNCc2cccc(OC)c2)cc(S(C)(=O)=O)c1 [Example 19, N-((2S,3R)-4-(3-methoxybenzylamino)-1-(3,5-difluorophenyl)-3-hydroxybutan-2-yl)-3-(methylsulfonyl)-5-((E)-1-(propoxyimino)ethyl)benzamide TFA salt] | 100 to 1000 |
| CO/N=C(\C)c1cc(C(=O)N[C@@H](Cc2cc(F)cc(F)c2)[C@H](O)CNCc2cccc(OC)c2)cc(N2CCCCS2(=O)=O)c1 [Example 24, N-[(1S,2R)-1-(3,5-difluoro-benzyl)-2-hydroxy-3-(3-methoxy-benzylamino)-propyl]-3-(1,1-dioxo-1λ^6-[1,2]thiazinan-2-yl)-5-{1-[(E)-methoxyimino]-ethyl}-benzamide TFA salt] | < 100 |
| C=CCO/N=C(\C)c1cc(C(=O)N[C@@H](Cc2cc(F)cc(F)c2)[C@H](O)CNCc2cccc(OC)c2)cc(C(=O)N(CCC)CCC)c1 [Example 7, N^1-((2S,3R)-4-(3-methoxybenzylamino)-1-(3,5-difluorophenyl)-3-hydroxybutan-2-yl)-5-((E)-1-(allyloxyimino)ethyl)-N^3,N^3-dipropylisophthalamide TFA salt] | < 100 |
| CCCN(CCC)C(=O)c1cc(C(=O)N[C@@H](Cc2cc(F)cc(F)c2)[C@H](O)CNCc2cccc(OC)c2)cc(/C(C)=N/O)c1 [Example 5, N^1-((2S,3R)-4-(3-methoxybenzylamino)-1-(3,5-difluorophenyl)-3-hydroxybutan-2-yl)-5-((E)-1-(hydroxyimino)ethyl)-N^3,N^3-dipropylisophthalamide hydrochloride] | < 100 |
| COc1cccc(CNC[C@@H](O)[C@H](Cc2cc(F)cc(F)c2)NC(=O)c2cc(/C(C)=N/OCc3ccccc3)cc(N(C)S(C)(=O)=O)c2)c1 [Example 31, N-((2S,3R)-4-(3-methoxybenzylamino)-1-(3,5-difluorophenyl)-3-hydroxybutan-2-yl)-3-((E)-1-(benzyloxyimino)ethyl)-5-(N-methylmethan-2-ylsulfonamido)benzamide TFA salt] | < 100 |
